What is called IC50 is the concentration needed to halve the response being measured. The low end stands for greater potency in that assay, the high end for weaker potency in that assay.

The experiment deals with T1, human TrkA receptor (Homo sapiens, UniProt P04629).
T1 construct: host or cells: U2OS cells (PathHunter cell line)
The experiment can be described thus: DiscoverX PathHunter TrkA functional assay (NGF-stimulated U2OS cells). It is filed as cell-based. The note with it: U2OS cells expressing human TrkA-PK, Shc1-EA and p75NTR; compound 1 h, then NGF at ~80% of maximal response for 3 h; luminescence.

T1 sequence (P04629 33-796): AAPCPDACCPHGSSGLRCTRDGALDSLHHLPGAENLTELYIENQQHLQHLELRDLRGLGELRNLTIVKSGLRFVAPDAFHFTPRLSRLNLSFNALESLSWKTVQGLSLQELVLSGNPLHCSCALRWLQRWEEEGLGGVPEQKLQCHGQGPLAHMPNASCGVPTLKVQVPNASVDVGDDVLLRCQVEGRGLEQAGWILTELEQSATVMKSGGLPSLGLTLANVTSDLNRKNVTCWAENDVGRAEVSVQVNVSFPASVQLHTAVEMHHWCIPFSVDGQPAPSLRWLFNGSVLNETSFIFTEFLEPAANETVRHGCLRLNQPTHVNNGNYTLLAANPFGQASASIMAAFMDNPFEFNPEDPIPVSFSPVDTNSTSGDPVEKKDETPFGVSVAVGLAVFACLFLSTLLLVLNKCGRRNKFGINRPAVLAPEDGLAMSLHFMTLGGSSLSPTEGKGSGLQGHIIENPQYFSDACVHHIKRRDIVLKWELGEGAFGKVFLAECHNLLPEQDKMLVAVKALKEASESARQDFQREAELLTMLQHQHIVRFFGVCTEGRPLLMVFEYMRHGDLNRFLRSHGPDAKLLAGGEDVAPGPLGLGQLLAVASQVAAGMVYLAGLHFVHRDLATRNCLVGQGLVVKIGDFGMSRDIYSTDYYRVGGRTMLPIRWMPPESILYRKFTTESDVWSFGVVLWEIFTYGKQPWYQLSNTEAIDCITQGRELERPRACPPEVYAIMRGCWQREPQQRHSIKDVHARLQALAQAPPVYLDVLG
Protocol: TrkA functional activity was measured using a DiscoverX PathHunter assay. In this assay, U2OS cells express the human TrkA receptor as a fusion with the weakly complementing fragment of B-galactosidase, which DiscoverX calls “Prolink (PK)”; additionally, Shc1 is fused with a larger fragment, which is called “Enzyme Acceptor (EA)”. Activation of the TrkA receptor, upon NGF addition, results in the kinase domain being phosphorylated, resulting in subsequent recruitment of Shc1-EA protein. That recruitment results in an active B-galactosidase enzyme that is detected by addition of a chemiluminescent substrate. The human p75^NTR protein was also expressed as a co-receptor for NGF.
All reagents were purchased from DiscoverX, except for the receptor agonists (NGF, BDNF, NT3) which were purchased from Peprotech. Cells were expanded and frozen into cryovials, and stored in the vapor phase of liquid nitrogen, and thawed immediately before use. Thawed cells were added to a 384-well plate at 7500 cells/well, and allowed to incubate overnight. Compound at various concentrations was added the following morning and allowed to incubate on cells for 1 h. Then, NGF was added at a concentration sufficient to elicit ˜80% of a maximal response and allowed to incubate for 3 h at ambient temperature. DiscoverX PathHunter detection reagent was then added and the plate was further incubated for 1 h in the dark. The plate was then read via luminescence on the Perkin Elmer Envision.

Regarding `C[C@@H](O)c1ccn2c(NC(=O)c3ccc(C(F)(F)F)c(-c4ccn(C)n4)c3)c(-c3ccccc3)nc2c1` (single isomer, unassigned) [Compound 42], 0.79 nM corresponded to half-maximal inhibition (IC50). This lies in the sub-nanomolar range.
With `CC(O)c1ccc2nc(-c3ccccc3)c(NC(=O)c3ccc(C(F)(F)F)c(-c4ccn(C)n4)c3)n2c1` (single isomer, unassigned) [Compound 48, (R or S)-N-[6-(1-hydroxyethyl)-2-phenylimidazo[1,2-a]pyridin-3-yl]-3-(1-methyl-1H-pyrazol-3-yl)-4-(trifluoromethyl) benzamide] the figure was 1.9 nM; with `Cn1ccc(-c2cc(C(=O)Nc3c(-c4ccccc4)nc4cc(C(O)CO)ccn34)ccc2C(F)(F)F)n1` (single isomer, unassigned) [Compound 49, (R or S)-N-[7-(1,2-dihydroxyethyl)-2-phenylimidazo[1,2-a]pyridin-3-yl]-3-(1-methyl-1H-pyrazol-3-yl)-4-(trifluoromethyl) benzamide], 0.51 nM; with `CC(c1ccn2c(NC(=O)c3cc(-c4ccn(C)n4)c(C(F)(F)F)cc3F)c(-c3ccccc3)nc2c1)N(C)C` (single isomer, unassigned) [Compound 51, (R or S)-N-{7-[1-(dimethylamino)ethyl]-2-phenylimidazo[1,2-a]pyridin-3-yl}-2-fluoro-5-(1-methyl-1H-pyrazol-3-yl)-4-(trifluoromethyl) benzamide], 3.5 nM.
The value for `Cn1ccc(-c2cc(C(=O)Nc3c(-c4ccccc4)nc4ccc(C(O)CO)cn34)ccc2C(F)(F)F)n1` (single isomer, unassigned) [Compound 52, (R or S)-N-[6-(1,2-dihydroxyethyl)-2-phenylimidazo[1,2-a]pyridin-3-yl]-3-(1-methyl-1H-pyrazol-3-yl)-4-(trifluoromethyl) benzamide] was 4.9 nM; that for `CC(O)c1ccn2c(NC(=O)c3cc(-c4ccn(C)n4)c(C(F)(F)F)cc3F)c(-c3ccccc3)nc2c1` (single isomer, unassigned) [Compound 54, (R or S)-2-fluoro-N-[7-(1-hydroxyethyl)-2-phenylimidazo[1,2-a]pyridin-3-yl]-5-(1-methyl-1H-pyrazol-3-yl)-4-(trifluoromethyl) benzamide] was 0.4 nM.
With `CC(O)c1ccn2c(NC(=O)c3cc(-c4ccn(C)n4)c(C(F)(F)F)cc3F)c(-c3ccccc3)nc2c1` (single isomer, unassigned) [Compound 55, (R or S)-2-fluoro-N-[7-(1-hydroxyethyl)-2-phenylimidazo[1,2-a]pyridin-3-yl]-5-(1-methyl-1H-pyrazol-3-yl)-4-(trifluoromethyl) benzamide] the figure was 0.37 nM; with `CC(c1ccn2c(NC(=O)c3ccc(C(F)(F)F)c(-c4ccn(C)n4)c3)c(-c3ccccc3)nc2c1)N(C)C` (single isomer, unassigned) [Compound 56, (R or S)-N-{7-[1-(dimethylamino)ethyl]-2-phenylimidazo[1,2-a]pyridin-3-yl}-3-(1-methyl-1H-pyrazol-3-yl)-4-(trifluoromethyl) benzamide], 1 nM.
Turning to `CC(O)c1ccn2c(NC(=O)c3cc(-c4ncccn4)c(C(F)(F)F)cc3F)c(-c3ccccc3)nc2c1` (single isomer, unassigned) [Compound 57, (R or S)-2-fluoro-N-[7-(1-hydroxyethyl)-2-phenylimidazo[1,2-a]pyridin-3-yl]-5-pyrimidin-2-yl-4-(trifluoromethyl) benzamide], 1.1 nM corresponded to half-maximal inhibition (IC50).
Regarding `CC(O)c1ccn2c(NC(=O)c3cc(-c4ncccn4)c(C(F)(F)F)cc3F)c(-c3ccccc3)nc2c1` (single isomer, unassigned) [Compound 58, (R or S)-2-fluoro-N-[7-(1-hydroxyethyl)-2-phenylimidazo[1,2-a]pyridin-3-yl]-5-pyrimidin-2-yl-4-(trifluoromethyl) benzamide], the 50% inhibitory concentration (IC50) was 0.92 nM.
The compound `Cc1coc(-c2cc(C(=O)Nc3c(-c4ccccc4)nc4cc(C(C)O)ccn34)ccc2C(F)(F)F)n1` (single isomer, unassigned) [Compound 61, (R or S)-N-[7-(1-hydroxyethyl)-2-phenylimidazo[1,2-a]pyridin-3-yl]-3-(4-methyl-1,3-oxazol-2-yl)-4-(trifluoromethyl) benzamide] yielded a 50% inhibitory concentration (IC50) of 2.4 nM.
Consider `Cc1coc(-c2cc(C(=O)Nc3c(-c4ccccc4)nc4cc(C(C)O)ccn34)ccc2C(F)(F)F)n1` (single isomer, unassigned) [Compound 62, (R or S)-N-[7-(1-hydroxyethyl)-2-phenylimidazo[1,2-a]pyridin-3-yl]-3-(4-methyl-1,3-oxazol-2-yl)-4-(trifluoromethyl) benzamide], for which the half-inhibitory concentration (IC50) came to 1.5 nM.
`Cn1ccc(-c2cc(C(=O)Nc3c(-c4ccccc4)nc4cc(C(O)C(F)(F)F)ccn34)ccc2C(F)(F)F)n1` (single isomer, unassigned) [Compound 63, (R or S)-3-(1-methyl-1H-pyrazol-3-yl)-N-[2-phenyl-7-(2,2,2-trifluoro-1-hydroxyethyl)imidazo[1,2-a]pyridin-3-yl]-4-(trifluoromethyl) benzamide] gave an IC50 of 1.6 nM.
`Cn1ccc(-c2cc(C(=O)Nc3c(-c4ccccc4)nc4cc(C(O)C(F)(F)F)ccn34)ccc2C(F)(F)F)n1` (single isomer, unassigned) [Compound 64, (R or S)-3-(1-methyl-1H-pyrazol-3-yl)-N-[2-phenyl-7-(2,2,2-trifluoro-1-hydroxyethyl)imidazo[1,2-a]pyridin-3-yl]-4-(trifluoromethyl) benzamide] yielded an IC50 of 1.1 nM.
With `Cn1ccc(-c2cc(C(=O)Nc3c(-c4ccccc4)nc4ccc(C(O)C(F)(F)F)cn34)ccc2C(F)(F)F)n1` (single isomer, unassigned) [Compound 65, (R or S)-3-(1-methyl-1H-pyrazol-3-yl)-N-[2-phenyl-6-(2,2,2-trifluoro-1-hydroxyethyl)imidazo[1,2-a]pyridin-3-yl]-4-(trifluoromethyl) benzamide] the figure was 12 nM.
As for `Cn1ccc(-c2cc(C(=O)Nc3c(-c4ccccc4)nc4ccc(C(O)C(F)(F)F)cn34)ccc2C(F)(F)F)n1` (single isomer, unassigned) [Compound 66, (R or S)-3-(1-methyl-1H-pyrazol-3-yl)-N-[2-phenyl-6-(2,2,2-trifluoro-1-hydroxyethyl)imidazo[1,2-a]pyridin-3-yl]-4-(trifluoromethyl) benzamide], 4.5 nM corresponded to half-maximal inhibition (IC50).
With `CC(O)c1ccn2c(NC(=O)c3ccc(C(F)(F)F)c(-c4ncccn4)c3)c(-c3ccccc3)nc2c1` (single isomer, unassigned) [Compound 67, (R or S)-N-[7-(1-hydroxyethyl)-2-phenylimidazo[1,2-a]pyridin-3-yl]-3-pyrimidin-2-yl-4-(trifluoromethyl) benzamide] the figure was 5.1 nM.
As for `CC(O)c1ccn2c(NC(=O)c3cc(-c4cc[nH]n4)c(C(F)(F)F)cc3F)c(-c3ccccc3)nc2c1` (single isomer, unassigned) [Compound 73, (R or S)-2-fluoro-N-[7-(1-hydroxyethyl)-2-phenylimidazo[1,2-a]pyridin-3-yl]-5-(1H-pyrazol-3-yl)-4-(trifluoromethyl) benzamide], half-maximal inhibition (IC50) required 1.4 nM.
The value for `CC(O)c1ccn2c(NC(=O)c3cc(-c4cc[nH]n4)c(C(F)(F)F)cc3F)c(-c3ccccc3)nc2c1` (single isomer, unassigned) [Compound 74, (R or S)-2-fluoro-N-[7-(1-hydroxyethyl)-2-phenylimidazo[1,2-a]pyridin-3-yl]-5-(1H-pyrazol-3-yl)-4-(trifluoromethyl) benzamide] was 1.8 nM.
For the compound `CC(O)c1ccn2c(NC(=O)c3ccc(C(F)(F)F)c(-c4ccn(C(F)F)n4)c3)c(-c3ccccc3)nc2c1` (single isomer, unassigned) [Compound 77, (R or S)-3-[1-(difluoromethyl)-1H-pyrazol-3-yl]-N-[7-(1-hydroxyethyl)-2-phenylimidazo[1,2-a]pyridin-3-yl]-4-(trifluoromethyl) benzamide], the IC50 was found to be 4 nM.
`CC(O)c1ccn2c(NC(=O)c3ccc(C(F)(F)F)c(-c4ccn(C(F)F)n4)c3)c(-c3ccccc3)nc2c1` (single isomer, unassigned) [Compound 78, (R or S)-3-[1-(difluoromethyl)-1H-pyrazol-3-yl]-N-[7-(1-hydroxyethyl)-2-phenylimidazo[1,2-a]pyridin-3-yl]-4-(trifluoromethyl) benzamide]: the half-inhibitory concentration (IC50) amounted to 4.8 nM.
The compound `CC(O)c1ccc2[nH]c(-c3ccccc3)c(NC(=O)c3cc(-c4ncccn4)c(C(F)(F)F)cc3F)c2c1` (single isomer, unassigned) [Compound 94, (R or S)-2-fluoro-N-[5-(1-hydroxyethyl)-2-phenyl-1H-indol-3-yl]-5-pyrimidin-2-yl-4-(trifluoromethyl) benzamide] returned a 50% inhibitory concentration (IC50) of 6.5 nM.
The compound `CC(O)c1ccc2[nH]c(-c3ccccc3)c(NC(=O)c3cc(-c4ncccn4)c(C(F)(F)F)cc3F)c2c1` (single isomer, unassigned) [Compound 95, (R or S)-2-fluoro-N-[5-(1-hydroxyethyl)-2-phenyl-1H-indol-3-yl]-5-pyrimidin-2-yl-4-(trifluoromethyl) benzamide] registered a concentration for half-maximal inhibition (IC50) of 4.9 nM.
With `CC(O)c1ccn2nc(-c3ccccc3)c(NC(=O)c3ccc(C(F)(F)F)c(-c4ccn(C)n4)c3)c2c1` (single isomer, unassigned) [Compound 97, (R or S)-N-[5-(1-hydroxyethyl)-2-phenylpyrazolo[1,5-a]pyridin-3-yl]-3-(1-methyl-1H-pyrazol-3-yl)-4-(trifluoromethyl) benzamide] the figure was 1.9 nM; with `CC(O)c1ccn2nc(-c3ccccc3)c(NC(=O)c3ccc(C(F)(F)F)c(-c4ccn(C)n4)c3)c2c1` (single isomer, unassigned) [Compound 98, (R or S)-N-[5-(1-hydroxyethyl)-2-phenylpyrazolo[1,5-a]pyridin-3-yl]-3-(1-methyl-1H-pyrazol-3-yl)-4-(trifluoromethyl) benzamide], 3.3 nM.

(Values after patent publication US9862716B2, “TRKA kinase inhibitors, compositions and methods thereof” (Merck Sharp & Dohme Corp., priority 2014, dated 2018).)
